Experimental data published in patent US20200377568A1, “Novel IL-4-/IL-13-derived peptide compounds for the treatment or prevention of neurodegenerative or neuroinflammatory diseases” (Universitätsmedizin der Johannes Gutenberg-Universität Mainz, priority 2018, published 2020).
“Also recorded” adds a separate entry of the source. Peptide text beside a SMILES is read from it.

B1: full length IL-4: recombinant human IL-4 (Peprotech) used on human H9 cell-derived neurons (protein, UniProt P05112 25-153, looked up)
Interleukin-4: HKCDITLQEIIKTLNSLTEQKTLCTELTVTDIFAASKNTTEKETFCRAATVLRQFYSHHEKDTRCLGATAQQFHRHKQLIRFLKRLDRNLWGLAGLNSCPVKEANQSTLENFLERLKTIMREKYSKCSS

How the values were obtained:
[1] = tested on: experimental autoimmune encephalomyelitis (EAE) mice; experiment: EAE clinical score, treatment during the chronic phase; assay type: in vivo, mouse; conditions: chronic phase of EAE, vs PBS
Procedure: To test whether Link4 has similar effects to IL-4 in vivo, two pilot experiments were performed. In the first experiment (FIG. 3A), B16 mice were subjected to EAE and treated with IL-4, Link4, Ph8 and PBS (n=6-7 animals per group) via lumbar intrathecal injection directly into the cerebrospinal fluid (CSF) every other day for 14 days, in the chronic phase of the disease starting from day 5 after the first disease peak (grey bar). […] For better clinical translation, the treatment was then switched to nasal treatment with IL-4 and Link4 (FIG. 3B; 2 pooled experiments, n=15-16 per group). Nasally applied treatments can enter the brain through the cribriform plate, where olfactory nerve fibers cross through the bone, resulting in a connection between the roof of the nasal cavity and the brain (C. F. Xiao, F. J. Davis, B. C. Chauhan, K. L. Viola, P. N. Lacor, P. T. Velasco, W. L. Klein, and N. B. Chauhan, Brain transit and ameliorative effects of intranasally delivered anti-amyloid-beta oligomer antibody in 5XFAD mice. J Alzheimers Dis 35, 777-788 (2013)). Again, both IL-4 and Link4 treatments were beneficial.
For active EAE, female 9-10-weeks-old C57BI6 mice were immunized as previously described (M. Paterka, J. O. Voss, J. Werr, E. Reuter, S. Franck, T. Leuenberger, J. Herz, H. Radbruch, T. Bopp, V. Siffrin, and F. Zipp, Dendritic cells tip the balance towards induction of regulatory T cells upon priming in experimental autoimmune encephalomyelitis. J Autoimmun 67, 108-114 (2017)) by subcutaneous injection of 200 μg myelin oligodendrocyte […] 35-55 (MOG35-55) mixed with complete Freund adjuvant (CFA). Following the MOG35-55 immunization 400 ng pertussis toxin (PTX) was administered intraperitoneally at the day of immunizaton and after 24 h. Clinical signs were scored using the following parameters:
Treatment with rIL-4 (1 μg, Peprotech), Ph8 (1 μg, custom synthesized, Schafer N), Link4 (1 μg, custom synthesized, Schafer N) or vehicle (PBS) was performed during the chronic phase of the disease models by lumbar intrathecal injection (R. Lu and A. Schmidtko, Direct intrathecal drug delivery in mice for detecting in vivo effects of cGMP on pain processing. Methods Mol Biol 1020, 215-221 (2013)) or nasal application of IL-4 and Link4 was performed according to published procedures (C. F. Xiao, F. J. Davis, B. C. Chauhan, K. L. Viola, P. N. Lacor, P. T. Velasco, W. L. Klein, and N. B. Chauhan, Brain transit and ameliorative effects of intranasally delivered anti-amyloid-beta oligomer antibody in SXFAD mice. J Alzheimers Dis 35, 777-788 (2013)). Mice were pre-trained to avoid stress and held at a 45 degree angle to apply IL-4 solution (1 μg, Peprotech) to the nostrils using a pipette tip.

[2] = cited from earlier work
CD4+ T cells = experiment: TH2 differentiation of naive T cells; assay type: cell-based, mouse; conditions: different concentrations, FIG. 4B
Procedure: (§1) A-B: Effects of incubation with IL-4 and different concentrations of Link4 and Link13 on the differentiation of A: CD11b^+ bone marrow-derived macrophages (BMDMs) into F80^+CD206^+ cells, and B: CD4^+ T cells into Gata3^+ cells. C-D: FACS results for different populations of T cells and CD11b^+MHCII^+ monocytes/macrophages/microglia of immune cells isolated from C: spleen and D: central nervous system (CNS) of EAE mice treated with PBS, IL-4 or Link4.
(§2) In order to investigate whether Link4 and Link13 are able to modulate immune cells, in vitro assays were performed on bone marrow-derived macrophages (BDMBs) and on naïve T cells.
For the isolation of T lymphocytes 5-8 week old C57BL/6 mice were sacrificed by cervical dislocation and the spleens and lymph nodes (LN) were isolated and rubbed trough a 100 μm cell strainer into a 50 ml tube with washing medium (5% FCS, 1% P/S,1% HEPES in PBS). After washing, the cells were centrifuged for 5 min at 550 g at 4° C. To remove the red blood cells the […] was re-suspended in lysis buffer followed by centrifugation (5 min, 550 g, 4° C.). The cells were resuspended in MACS buffer and magnetic lymphocyte sorting was performed on ice, using the MidiMACS and QuadroMACS Seperators. A CD4 untouched and CD8 touched cell sort was performed a washing step in ml MACS buffer (5 min, 550 g, 4° C.). Cells were incubated with CD4 T cell biotin antibody cocktail (Miltenyi Biotec) in MACS buffer for 5 min at 4° C. Subsequently, anti-biotin microbeads and CD8 microbeads in MACS buffer was added. CD8 microbeads were added to reduce the possible contamination of CD8^+ lymphocytes. After 10 min of incubation at 4° C. the cells were washed again and resuspended in MACS buffer. MACS columns were pre equilibrated and topped with pre-separation filters (30 μm). A maximum of 300×10^6 cells were added to each column followed by 3 consecutive washing steps with MACS buffer. […] The purity of the magnetic cells sorts was assessed by comparing pre- and post-sort samples by flow cytometry. […]

[3] = tested on: CD11b+ bone marrow-derived macrophages (BMDMs); experiment: Differentiation of bone marrow-derived macrophages; assay type: cell-based, mouse; conditions: different concentrations, FIG. 4A
Procedure: as §1, §2
Murine BMDMs were isolated from adult C57BL/6 mice. The tibia and femur bones were flushed with sterile PBS and the bone marrow was collected in washing medium. After filtering the cell suspension trough a 100 μm nylon mesh, the cells were centrifuged (5 min, 550 g, 4° C.) and resuspended in mouse medium (10% FCS, 1% P/S, 1% L-glutamine, 0.1% β-mercaptoethanol, 1% HEPES in RPMI buffer). For the in vitro generation of BMDMs cells were plated in 6 well-plates and exposed to 20 ng/ml Macrophage […] (M-CSF) for 4 days. For the activation of the cells, Dexametason (5×10^−7M), LPS (10 μg/ml) and IL-4 (10 ng/ml) were added to the culture for the following 3 days.

[4] = tested on: human H9 cell-derived neurons; experiment: Growth assay for human H9 cells; assay type: cell-based; conditions: 50 ng/ml, 24 h, vs PBS, FIG. 7B
Description: B: Human Link4 induced neurite outgrowth in human H9 cell-derived neurons. Human neurons were cultivated with commercially available human neural stem cells (H9 cells), which were then differentiated to become neurons. […] The growth assay for human H9 cells described herein can be used to easily detect effects of the derivative peptides of the present invention on human neurons. In particular, this assay can be used to quickly test whether derivative peptides falling within the scope of the present invention are functional.
H9 human neural stem cells (H9 hNSCs) were purchased from Gibco and expanded according to the manufacturer's instructions. For consecutive neural differentiation hNSCs were harvested and reseeded on glass coverslips coated with Matrigel (High Concentration, Growth Factor Reduced; Corning; diluted 1:100 in Knockout DMEM [Gibco]) at a density of 25.000 cells/cm^2. hNSCs were allowed to rest for 48 hours in a basal neuronal medium (Neurobasal, 1X B27, 1x Glutamax, 1x Penicillin/Streptomycin, all from Gibco) before changing to EnStem A Neural Differentiation Medium (SCM017, Millipore) for a further 4 days. Cultures were treated with recombinant human IL-4 (Peprotech) or human Link4 at 50 ng/ml or equal volumes of PBS for 24 h. […]

[5] = tested on: mouse embryonic fibroblasts (Mef); experiment: CellTiter-blue cell viability assay (ctb), fibroblasts; assay type: cell-based; conditions: Mef cells, increasing concentrations, FIG. 2A
Procedure: (§3) Toxicity was checked by subjecting mouse embryonic fibroblasts (Mef) and the hippocampal cell line HT22 to a CellTiter-blue cell viability assay (ctb).
(§4) Mouse embryonic fibroblasts (Mef) (Sigma-Aldrich) and hippocampal HT22 (ThermoScientific) cells were cultured according to the manufacturer's protocols. Ctb assays were performed according to the manufacturer's protocols (Promega).

[6] = tested on: hippocampal cell line HT22; experiment: CellTiter-blue cell viability assay (ctb), hippocampal cell line; assay type: cell-based; conditions: HT22 cells, increasing concentrations, FIG. 2B
Procedure: as §3, §4

[7] = lumbar intrathecal injection, 1 μg every other day for 14 days

Row | Molecule | clinical score [1, 7] | differentiation of CD4+ T cells into Gata3+ cells (CD4+ T cells) | differentiation of CD11b+ BMDMs into F80+CD206+ cells [3] | neurite outgrowth [4] | further results
1 | interleukin-4 [IL-4] | ameliorate clinical symptoms; also recorded: significant improvement in the clinical score; also recorded: significant amelioration of the clinical score | observed | increased the expression of the differentiation markers F80 and CD206 | – | clinical score ([1]; lumbar intrathecal injection, 1 μg every other day for 14 days, listed as mouse full length IL-4): reducing disease symptoms; clinical score ([1]; nasal application): equally effective; also recorded: significant improvement in the clinical score; also recorded: beneficial; half-life in blood plasma [2]: very short half-life
2 | WNRSEIIKTGSKTIMREKY (listed as Homo sapiens) [human Link4] | equally effective as mouse Link4 | – | – | increase neurite outgrowth | –
3 | LIRSELIEELSNITGSFITKLLSYTKQ (listed as Mus musculus) [Link13] | – | did not take place | did not occur | – | –
4 | CC[C@H](C)[C@H](NC(=O)CNC(=O)[C@@H](NC(=O)[C@@H](NC(=O)[C@@H](N)CCC(=O)O)[C@@H](C)CC)[C@@H](C)CC)C(=O)NCC(=O)N1CCC[C@H]1C(=O)N[C@@H](CCCNC(=N)N)C(=O)N[C@@H](CC(C)C)C(=O)N[C@@H](Cc1ccccc1)C(=O)N[C@@H](CCCNC(=N)N)C(=O)N[C@@H](C)C(=O)N[C@@H](Cc1ccccc1)C(=O)N[C@@H](CCCNC(=N)N)C(=O)N[C@@H](CS)C(=O)N[C@@H](CO)C(=O)NCC(=O)N[C@@H](CO)C(=O)N[C@@H](CCCNC(=N)N)C(=O)N[C@@H](C)C(=O)N[C@@H](CO)C(=O)N[C@@H](CCCCN)C(=O)N[C@H](C(=O)N[C@@H](CC(C)C)C(=O)N[C@@H](CCCNC(=N)N)C(=O)N[C@H](C(=O)N[C@@H](Cc1ccccc1)C(=O)N[C@@H](Cc1ccc(O)cc1)C(=O)N[C@@H](CC(C)C)C(=O)O)[C@@H](C)CC)C(C)C [AvoC] (H-EIIGIGPRLFRAFRCSGSRASKVLRIFYL-OH; N-terminus and C-terminus assumed) | – | – | – | – | toxic effects on fibroblasts (cell viability) [5]: no toxic effects; toxic effects on hippocampal neurons (cell viability) [6]: no toxic effects
5 | B1 | – | – | – | increase neurite outgrowth | –
